Reference: patent US6399617B1, “Use” (Biovitrum AB, priority 2000, dated 2002)

Tests used:
[1] = Determination of plasma concentration (free plasma concentration at steady state); format: in vivo, mouse; conditions: ob/ob mice, subcutaneous continuous infusion
Method: The weights of the food pellets are measured at 5 p.m. and at […]. for two days before (baseline) and one day after the implantation of the osmotic minipumps. The weighing is performed with a computer assisted Mettler Toledo PR 5002 balance. Occasional spillage is corrected for. At the end of the study the animals are killed by neck dislocation and trunk blood sampled for later analysis of plasma drug concentrations.
The plasma sample proteins are precipitated with methanol, centrifuged and the supernatant is transferred to HPLC vials and injected into the liquid chromatography/mass spectrometric system. The mass spectrometer is set for electrospray positive ion mode and Multiple Reaction Monitoring (MRM with the transition m/z 316⇄221).
A linear regression analysis of the standards forced through the origin is used to calculate the concentrations of the unknown samples.

[2] = system: ob/ob mice; assay: Effect of compounds on food intake in ob/ob mice (15 h food consumption during subcutaneous minipump infusion); format: in vivo, mouse; conditions: subcutaneous continuous infusion
Method: Obese (ob/ob) mouse is selected as the primary animal model for screening as this mutant mouse consumes high amounts of food resulting in a high signal to noise ratio. To further substantiate and compare efficacy data, the effect of the compounds on food consumption is also studied in wild type (C57BL/6J) mice. The amount of food consumed during 15 hours of infusion of compounds is recorded.
Male mice (obese C57BL/6JBom-Lep^ob and lean wild-type C57B1/6JBom; Bomholtsgaard, Denmark) 8-9 weeks with an average body weight of 50 g (obese) and 25 g (lean) are used in all the studies. The animals are housed singly in cages at 23±1° C., 40-60% humidity and have free access to water and standard laboratory chow. The 12/12-h light/dark cycle is set to lights off at 5 p.m. The animals are conditioned for at least one week before start of study.
The test compounds are dissolved in solvents suitable for each specific compound such as cyclodextrin, cyclodextrin/methane sulfonic acid, polyethylene glycol/methane sulfonic acid, or saline. Fresh solutions are made for each study. […] The purity of the test compounds is of analytical grade.
The animals are weighed at the start of the study and randomized based on body weight. Alzet osmotic minipumps (Model 2001D; infusion rate 8 μl/h) are used and loaded essentially as recommended by the Alzet technical information manual (Alza Scientific Products, 1997; Teeuwes and Yam, 1976). Continuous subcutaneous infusion with 24 hours duration is used. The minipumps are either filled with different concentrations of test compounds dissolved in vehicle or with only vehicle solution and maintained in vehicle pre-warmed to 37° C. […]
The weights of the food pellets are measured at 5 p.m. and at 8 p.m. for two days before (baseline) and one day after the implantation of the osmotic minipumps. […]
Food consumption for 15 hours is measured for the three consecutive days and the percentage of basal level values is derived for each animal from the day before and after treatment. The values are expressed as mean±SD and mean±SEM from eight animals per dose group. […]

SMILES: COc1ccc(NS(=O)(=O)c2sc3ccc(Cl)cc3c2C)cc1N1CCNCC1.Cl [SB-271046, 5-Chloro-3-methyl-benzo-[b]thiophene-2-sulphonic acid (4-methoxy-3-piperazin-yl-phenyl)-amide monohydrochloride]
- Free plasma concentration at the steady state giving the effect ([1]; 10 mg/kg/day): 0.006
- Free plasma concentration at the steady state giving the effect ([1]; 30 mg/kg/day): 0.019
- Free plasma concentration at the steady state giving the effect ([1]; 50 mg/kg/day): 0.034
- reduction of food intake compared to the basal level of food intake ([2]; 10 mg/kg/day): 45%
- reduction of food intake compared to the basal level of food intake ([2]; 30 mg/kg/day): 60%
- reduction of food intake compared to the basal level of food intake ([2]; 50 mg/kg/day): 77%
